Data from US20240124483A1, “Methods for the Treatment of Fibrotic Disease” (SHY Therapeutics, LLC, priority 2021, published 2024).
Where two headings read alike, the source gives them in different places.

Legend:
[1] = system: Smad2 phosphorylation; assay: Phospho-Smad2 analysis of muscle tissue in the D2-mdx mouse model (western blot, densitometry); type: in vivo
From the text: (§1) The experiment described herein was designed to monitor the effects of Compound 9 on two biomarkers related to fibrosis in D2-mdx mice. The first biomarker is Smad2 phosphorylation, and the second is the levels of serum albumin in the different muscle tissues. Fibrosis causes disruption of the fine transparent tubular sheath which envelops the fibers of skeletal muscles, this can result in various molecules from the blood and interstitial fluid leaking into myofibres. A classic example is serum albumin, which can be identified in tissue sections and considered to be hallmark of myofibre permeability.
(§2) Experimental Design: Compound 9 was suspended in 0.5% Hydroxypropyl Methylcellulose (HPMC)/0.1% Tween® 80 to a final concentration of 10 mg/mL. The dosing solutions were prepared prior to the start of the test and were stored in the dark and maintained in frozen aliquots. Doses were thawed prior to administration. Male D2-mdx (JAX Stock No: 013141) mice were sourced from The Jackson Laboratory and housed in solid bottom cages with standard chow and water ad libitum. Dosing was initiated when animals were ˜3 weeks old. Animals were dosed daily by intraperitoneal (IP) injection at 100 mg/kg or vehicle for 3 days. […] Mice were sacrificed by CO2 euthanasia approximately 6 hours after their day 3 dosing. Heart, diaphragm, quadriceps, tibialis anterior (TA) samples were collected at termination on day 3 and snap frozen. These samples were shipped on dry ice for analysis, and were stored at −80° C.
(§3) Tissue protein extraction: Frozen tissues were placed on ice in prechilled tubes with 30 μL/mg with of ice-cold RIPA buffer+Halt™ Protease & Phosphatase Inhibitor Cocktail. Tissue was homogenized with a manual tissue homogenizer then centrifuged at 14,000 RPM at 4° C. for 15 min. Supernatant was removed and protein concentration determined by BCA assay.
(§4) Western blot protocol: Equal amounts of protein (15-50 μg) were separated by SDS-PAGE and transferred to nitrocellulose membranes (Invitrogen by Thermo Fisher Scientific). The membrane was stained with Ponceau S Stain (Boston BioProducts) to verify uniform protein loading. Membranes were blocked with 10% milk and albumin levels were assessed by incubating overnight at 4° C. with albumin antibody (Cell Signaling Technology #4929). Then the membranes were incubated with HRP-conjugated secondary antibody (Jackson Immunoresearch, West Grove, PA). Bands were incubated in Amersham ECL Prime Western Blotting Detection Reagent (GE Healthcare) and visualized using the ChemiDoc MP imaging system (Bio-Rad).
(§5) Western blot images for samples collected from heart (FIG. 2), diaphragm (FIG. 3), quadriceps (FIG. 4), and tibialis anterior (TA, FIG. 5) tissues following termination on day 3 were analyzed, providing the results summarized herein below (derived by densitometry).

[2] = system: serum albumin in muscle tissues; assay: Albumin analysis of muscle tissue in the D2-mdx mouse model (western blot, densitometry); type: in vivo
From the text: as §1, §2, §3, §4, §5

[3] = Assessment of Plasma Exposure in DBA/2J mice; type: in vivo, mouse; conditions: for half-life / AUC(0-t) / Cmax / AUC(0-inf) / Tmax: male, DBA/2J, mouse plasma; for half-life / AUC(0-t) / Cmax / AUC(0-inf): mouse, plasma, po; for AUC(0-inf): read-out: AUCINFobs
[4] = D2-mdx mice, 100 mg/kg IP, 3 days
[5] = Ratio of Vehicle and Treated, 100 mg/kg IP, 3 days
[6] = Treated, 100 mg/kg IP daily for 3 days, D2-mdx mice, densitometry
[7] = 25 mg/kg, Group 2: 25 mg/kg PO, Vehicle 1
[8] = 100 mg/kg, Group 3: 100 mg/kg PO, Vehicle 1
[9] = 100 mg/kg, Group 4: 100 mg/kg PO, Vehicle 2

With `COCCNc1nc(-c2nccn2C)nc2sc(-c3cccc(OC)c3Cl)c(-c3ccccc3)c12` [Compound 9, 6-(2-Chloro-3-methoxyphenyl)-N-(2-methoxyethyl)-2-(1-methyl-1H-imidazol-2-yl)-5-phenylthieno[2,3-d]pyrimidin-4-amine] the “Smad2 phosphorylation in the diaphragm compared to control vehicle mice” value [1, 4] was “inhibition of Smad2 phosphorylation”, the “Smad2 phosphorylation in the heart” value [1, 4] was “No changes were detected” and the “Phospho-Smad2, Diaphragm, Average, Ratio” value [1, 5] was 1.53. The “Phospho-Smad2, Diaphragm, Median, Ratio” value [1, 5] was 1.54, the “Phospho-Smad2, Quadriceps, Average, Ratio” value [1, 5] was 1.10 and the “Phospho-Smad2, Quadriceps, Median, Ratio” value [1, 5] was 0.64. For the same molecule, the “Phospho-Smad2, Diaphragm, Average” value [1, 6] was 0.18 ± 0.06, the “Phospho-Smad2, Diaphragm, Median” value [1, 6] was 0.19 and the “Phospho-Smad2, Quadriceps, Average” value [1, 6] was 0.22 ± 0.11. The “Phospho-Smad2, Quadriceps, Median” value [1, 6] was 0.28, the “serum albumin levels in the heart” value [2, 4] was “No changes were detected” and the “serum albumin levels in the tibialis anterior and quadricep muscles” value [2, 4] was “clear decrease”. The “Albumin, Quadriceps, Average, Ratio” value [2, 5] was 1.25, the “Albumin, Quadriceps, Median, Ratio” value [2, 5] was 1.21 and the “Albumin, Tibialis anterior, Average, Ratio” value [2, 5] was 1.18. The “Albumin, Tibialis anterior, Median, Ratio” value [2, 5] was 1.26, the “Albumin, Quadriceps, Average” value [2, 6] was 32650 ± 4998 and the “Albumin, Quadriceps, Median” value [2, 6] was 34329. For the same molecule, the “Albumin, Tibialis anterior, Average” value [2, 6] was 34522 ± 4321, the “Albumin, Tibialis anterior, Median” value [2, 6] was 33494 and the “Exposures (AUC), dose dependence” value ([3]; Groups 2 and 3: 25 and 100 mg/kg PO, Vehicle 1) was “dose proportional”. For the same molecule, the half-life ([3]; 25 mg/kg, Group 2: 25 mg/kg PO, Vehicle 1 (0.5% HPMC with 0.1% Tween 80)) was 2.9 h, the AUC(0-t) [3, 7] was 3880 ng·h/mL and the Cmax [3, 7] was 703 ng/mL. It also gave an AUC(0-inf) [3, 7] of 3900 ng·h/mL, an AUC(0-t) [3, 8] of 16700 ng·h/mL and a Cmax [3, 8] of 1960 ng/mL. The half-life [3, 8] was 2.11 h, the AUC(0-inf) [3, 8] was 16700 ng·h/mL and the half-life ([3]; 100 mg/kg, Group 4: 100 mg/kg PO, Vehicle 2 (Solubilized Lipid)) was 2.3 h. The AUC(0-t) [3, 9] was 17100 ng·h/mL, the Cmax [3, 9] was 2090 ng/mL and the AUC(0-inf) [3, 9] was 17200 ng·h/mL. For the same molecule, the Tmax ([3]; Group 2: 25 mg/kg PO, Vehicle 1) was 4 h, the Tmax ([3]; Group 3: 100 mg/kg PO, Vehicle 1) was 4 h and the “Exposures (AUC), Vehicle 1 compared to Vehicle 2” value ([3]; oral dosing (PO), 100 mg/kg) was “similar”.
